Test results taken from patent US20190327974A1, “SYNERGISTS FOR IMPROVED PESTICIDES” (priority 2017, published 2019).

What follows are compounds tested against T1, Gly137Asp LcαE7 (Lucilia cuprina, UniProt Q25252, G137D) (assay: Enzyme inhibition assay with 4-nitrophenol butyrate, Gly137Asp variant). Conditions: not given.
T1 sequence (Q25252 1-570 G137D): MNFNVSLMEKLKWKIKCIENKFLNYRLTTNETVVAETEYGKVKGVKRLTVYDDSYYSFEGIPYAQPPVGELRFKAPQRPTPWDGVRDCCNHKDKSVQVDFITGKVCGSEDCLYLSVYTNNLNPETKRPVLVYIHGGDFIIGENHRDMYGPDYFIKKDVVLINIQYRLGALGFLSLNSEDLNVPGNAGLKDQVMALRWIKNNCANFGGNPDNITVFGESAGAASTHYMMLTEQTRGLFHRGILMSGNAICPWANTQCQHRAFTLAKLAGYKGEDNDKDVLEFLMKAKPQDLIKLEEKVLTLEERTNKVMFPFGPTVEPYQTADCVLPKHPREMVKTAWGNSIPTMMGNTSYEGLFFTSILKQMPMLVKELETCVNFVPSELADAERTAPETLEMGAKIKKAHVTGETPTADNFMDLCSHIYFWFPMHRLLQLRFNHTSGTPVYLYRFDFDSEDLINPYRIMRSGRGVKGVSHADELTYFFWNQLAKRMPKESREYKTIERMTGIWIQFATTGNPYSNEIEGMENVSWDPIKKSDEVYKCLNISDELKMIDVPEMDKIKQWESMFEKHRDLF
Format: biochemical
Description: Inhibition of wild-type αE7 and the Gly137Asp αE7 variant was determined by a competition assay between the native-substrate analogue 4-nitrophenol butyrate (Sigma) and the boronic acid compounds. Initially, the Michalis constant (KM) with 4-nitrophenol butyrate was measured for both enzymes to determine an appropriate concentration of substrate for use in the competition assays. Formation of the 4-nitrophenolate product of hydrolysis was monitored at 405 nm in the presence of enzyme and eight different concentrations of substrate. 4-nitrophenol butyrate was prepared in methanol to 100 mM and serially diluted 1-in-2 to achieve concentrations from 100 mM to 0.8 mM. Enzyme stocks were prepared in 4 mg/ml bovine serum albumin (Sigma) to maintain enzyme stability. Reactions were prepared by pipetting 178 μl assay buffer (100 mM NaCl, 20 mM HEPES pH 7.5) and 2 μl substrate (final concentrations of 1000 to 8 μM) into 300 μl wells of a 96-well plate. The reaction was initiated by the addition of 20 μl enzyme (final concentration 2.5 nM for wildtype αE7 and 4 nM for Gly137Asp αE7). Product formation was monitored for four minutes at room temperature using an Epoch microplate spectrophotometer (BioTek) and the initial rates of ester hydrolysis were determined by linear regression using GraphPad Prism. The Michalis constant was determined by fitting the initial rates to the Michalis-Menton equation (FIG. 10).
Enzyme inhibition with the boronic acid compounds was determined by assaying the initial rate of 4-nitrophenol butyrate hydrolysis in the presence of either neat DMSO or the boronic acid compounds in DMSO. Compounds were prepared by serially diluting 1-in-3 an initial 10 mM stock to achieve concentrations from 10 mM to 2 nM. Reactions were prepared by pipetting 178 μl assay buffer supplemented with substrate to a final concentration equal to the KM of the enzyme (15 μM for wildtype αE7 and 250 μM for Gly137Asp αE7) into wells of a 96-well plate. 2 μl neat DMSO or 2 μl serially diluted inhibitor (final concentrations of 100 μM to 20 pM) were added to the wells. The reaction was initiated by the addition of 20 μl enzyme (final concentration 0.5 nM for wildtype αE7 and 10 nM for Glyl37Asp αE7). Product formation was monitored for four minutes at room temperature and the initial rates of ester hydrolysis were determined by linear regression. To determine the concentration of boronic acid compounds required to inhibit 50% of esterase activity (IC50), a four-parameter sigmoidal dose-response curve was fitted to percentage inhibition using GraphPad Prism (FIGS. 7 and 8). Ki values were determined using the Cheng-Prusoff equation assuming competitive inhibition (Yung-Chi, C. & Prusoff W. H. Relationship between the inhibition constant (KI) and the concentration of inhibitor which causes 50 percent inhibition (150) of an enzymatic reaction. Biochem. Pharmacol. 22, 3099-3108 (1973)).
The two most common CBE-mediated insecticide resistance mechanisms involve increased protein expression, or mutation to gain new catalytic (OP-hydrolase) functions. Compounds 1 to 5 were tested against the resistance associated Gly137Asp variant of LcαE7^17,27 (Table 1). The Glyl37Asp mutation is located in the oxyanion hole and positions a new general base in the active site to catalyze dephosphorylation of the catalytic serine. Thus, compounds that inhibit WT LcαE7 as well as this common resistance associated Glyl37Asp variant would increase the efficacy of OPs by targeting both detoxification routes. Encouraged by the activity of the boronic acids 1 to 5, the compounds were tested against the Gly137Asp variant of LcαE7 (Table 1).
`OB(O)c1ccc(OCc2ccccc2F)c(Cl)c1` [Compound 5, 3-Chloro-4(2′-fluorobenzyloxy) phenylboronic acid] showed a Ki of 170 nM. With `Cc1ccc(B(O)O)cc1Br` [Compound 1] the Ki was 49 nM. Work on `OB(O)c1cc(Br)cc(N2CCCC2)c1` [Compound 3] yielded a Ki of 110 nM. With `OB(O)c1cc(Br)cc(OCc2ccccc2)c1` [Compound 3.9] the Ki was 25 nM. Work on `CC(C)(C)Oc1ccc(B(O)O)cc1Br` [Compound 3.12] yielded a Ki of 990 nM. Compound `CN1CCN(c2cc(Br)cc(B(O)O)c2)CC1` [Compound 3.4] has a Ki of 1000 nM. In the case of `CC(C)Oc1cc(Br)cc(B(O)O)c1` [Compound 3.7, 3-Bromo-5-isopropoxyphenylboronic acid], the Ki is reported as 76 nM. Work on `OB(O)c1ccc2ccccc2c1` [Compound 4] yielded a Ki of 190 nM. `Cc1ccc(B(O)O)cc1OCc1ccccc1` [Compound 2] showed a Ki of 29 nM. `O=C(c1cc(Cl)cc(B(O)O)c1)N1CCOCC1` [Compound 3.11] showed a Ki of 1000 nM. Compound `OB(O)c1ccccc1` [PBA, phenylboronic acid, reference compound] has a Ki of 450 nM. `OB(O)c1cc(Br)cc2c1OCC2` [Compound 3.5] was tested, and the Ki was 440 nM. Compound `OB(O)c1cc(Br)cc(Oc2ccccc2)c1` [Compound 3.10, 3-Bromo-5-phenoxyfenylboronic acid] has a Ki of 18 nM. `OB(O)c1cc(Br)cc(OC(F)(F)F)c1` [Compound 3.8] gave a Ki of 110 nM. With `OB(O)c1cc(Br)cc(N2CCCCC2)c1` [Compound 3.3] the Ki was 150 nM. Work on `OB(O)c1cc(Br)c2ccccc2c1F` [Compound 3.6] yielded a Ki of 71 nM.

Same assay, conditions: Cheng-Prusoff from dose-response; 4-nitrophenol butyrate; read-out: Ki Gly137Asp LcαE7
`OB(O)c1cc(Br)cc(N2CCOCC2)c1` [Compound 3.1] showed a Ki of 430 nM.
